# Values quoted from earlier work in PubChem BioAssay AID1259409 (Chemical Carcinogenesis Research Information System (CCRIS), 2018).
# Test system: rodent chemically induced tumor inhibition, incidence and multiplicity
# Assay: CCRIS tumor inhibitor studies
# Conditions: Carcinogen: AZOXYMETHANE, 25843-45-2, Dose [Inhibitor]: 0, 5 MG/G IN DIET FOR 22 WK BEGINNING 3 D POST LAST CARCINOGEN DOSE (STUDY DURATION: 25 WK), Route [Inhibitor]: ORAL, Species: RAT, Strain/Sex: F344/MALE, Dose [Carcinogen]: 15 MG/KG BW 2/WK FOR 3 WK, Promoter: NONE USED
smiles,measurement,setting,value
C=CC(C)(O)CCC=C(C)C (configuration not stated),"tumour outcome (control, treated, inhibition, significance)",Target Tissue: Type of Lesion: DUODENUM: ADENOCARCINOMA,"50%, 26%, 48%, not significant"
same,"tumour outcome (control, treated, inhibition, significance)",Target Tissue: Type of Lesion: LARGE BOWEL: ADENOMATOUS POLYP,"82%, 79%, 4%, not significant"
